Read-outs that look alike come from different tables or passages of the source. Marks after values point to notes of the source that are not given here.
Columns and labels:
MAT-LyLu prostate tumor = assay: Effect of pretreatment on paclitaxel accumulation in tumors, in vivo infusion; design: species or system Copenhagen rat
Source text: (§1) Experiments were initiated when the tumor was between 0.3 to 0.5 g in size.
(§2) The jugular vein and carotid artery of tumor-bearing rats were catheterized, under light ether anesthesia, with polyethylene tubing (PE-50, Becton Dickinson Co., Sparks, Md.) for drug administration and for blood sampling, respectively. Each catheter was exteriorized to the dorsal side of the neck and attached to a second polyethylene tubing (PE-50), respectively. The catheters and tubings were covered with a metal coil tubing. […] Blood samples (0.12 or 0.22 ml) were obtained at predetermined times. Plasma fraction was obtained by centrifugation at 2,000 g for 3 min, and stored at −70° C. for HPLC analysis. At the end of the experiment, tumors were harvested. One quarter of a tumor was fixed in 10% neutralized formalin solution and processed for tissue morphology evaluation. Tumor cell density and the fraction of apoptotic cells were determined by counting the number of tumor cells and apoptotic cells in nonnecrotic regions at 400× magnification (5 microscopic fields/tumor). The remainder of the tumor was stored at […] until HPLC analysis for drug concentration.
(§3) Preweighed tumors were homogenized, mixed with the internal standard, 100:1 cephalomanine (10:g/ml in methanol). The HPLC stationary phase consisted of a cleaning column (NovaPak C8, 75×3.9 mm ID, 4:m particle size, Waters Associates, Milford, Mass.) and an analytical column (Bakerbond Octadecyl, 250×4.6 mm ID, 5:m particle size, J. T. Baker, Phillipsburg, N.J.). Samples were injected onto the clean-up column and eluted with the clean-up mobile phase (37.5% acetonitrile in Water) at 1 ml/min.

[1] = as above; design: species or system Copenhagen rat; conditions: male, Copenhagen, rat; for Kp: tumor and plasma, intravenous, read-out: Tumor-to-plasma conc. ratio at end of Tx
Source text: as §1, §2, §3

[2] = test system: patient head and neck tumors; assay: Paclitaxel efflux from tumor histocultures
Protocol: (§4) The specimens were washed with culture medium for three times and dissected into about 1 mm^3 fragments under sterile conditions. The culture medium consisted of a 1:1 mixture of MEM/DMEM for patient tumors, MEM for FaDu xenografts, and RPMI1640 for PC3 xenografts, supplemented with 9% heat-inactivated FBS, 2 mM glutamine, 0.1 mM non-essential amino acids (only for MEM/DMEM), 90:g/ml gentamicin and 90:g/ml cefotaxime sodium. Five histoculture fragments were placed on a 1 cm^2 piece of presoaked collagen gel and incubated with 4 ml culture medium in 6-well plates. After 2 to 4 days, tumor histocultures were used to study the kinetics of drug penetration.
(§5) At predetermined times, 100 μl of medium was taken from each well and the histocultures were removed from the plates. The histocultures were blot-dried on a filter paper and their weights were measured. One hundred 1 of medium or tumor samples were mixed with 0.5 ml of Solvable tissue/gel solubilizer, incubated at 50° C. in an oven overnight, and analyzed for total radioactivity using liquid scintillation counting. […] Drug concentration in tissue was calculated as (drug amount) divided by (tissue weight) and was expressed in molar terms.
(§6) The study design of experiments using patient tumors was dictated by the size of the specimens. On some occasions, specimens from an individual patient were only sufficient to study drug uptake and efflux at one or more but not all drug concentrations. A total of 7 head and neck tumors and 3 ovarian tumors were used. For the FaDu xenograft tumor, specimens from individual animals were sufficiently large that each tumor was used for studying uptake and efflux at all four drug concentrations.
After replacing the drug-containing medium with drug-free medium, the drug concentration remaining in histocultures at 24 and 72 hours post-treatment were analyzed to determine the time to reach 50% of the pseudo steady state level (T1/2,efflux). The statistical significance of the differences among patient (head and neck and ovarian, n=6) and FaDu (n=3) tumors, at equal initial medium concentrations, were analyzed using a unpaired t-test.

[3] = test system: patient head and neck tumors; assay: Paclitaxel uptake in tumor histocultures
Protocol: as §4
This study was performed using head and neck tumors from human patients and the human pharynx FaDu xenograft tumors maintained in athymic mice.
as §5, §6
The statistical significance of the differences among patient (head and neck and ovarian, n=6) and FaDu (n=3) tumors, at equal initial medium concentrations, were analyzed by the two-tailed unpaired Student's t-test.

[4] = test system: FaDu xenograft tumor histocultures; assay: Apoptotic cell fraction in paclitaxel-treated histocultures (Example 1); type: cell-based, human
Protocol: The fractions of stromal tissue and tumor cells in each histoculture were measured using image analysis. Briefly, stromal and tumor cells of a 100× magnification field were outlined with the computer mouse. The sizes of each of these regions were determined via image analysis by counting the number of pixels in the region. […] Apoptotic cells were determined based on morphological changes in tumor cells such as chromatin condensation and margination, disappearance of nucleoli, formation of membrane blebs, apoptotic bodies and/or cell shrinkage (Kerr J F R et al. (1994) Cancer 73:2013). […] For each tumor piece, 50 to 100 images were processed, and the fractions of the tumor represented by tumor cells, stromal tissue, and interstitial space were calculated.

FaDu tumor histocultures = conditions: for time at which even distribution in tumor was attained: with pretreatment
Source text: The histocultures were transferred to a collagen gel presoaked with drug-containing medium for at least 8 hr. The latter was to ascertain that the drug concentration in the medium inside the collagen gel was at equilibrium with the surrounding medium, in order to eliminate the delay in drug transport from medium through the collage gel. Drug treatment was terminated by transferring histocultures to a collagen gel presoaked with drug-free medium. Histocultures were transferred using a pair of hooked forceps and care was exercised to avoid squeezing or pinching.
The total drug concentration in tumor histocultures was measured as described in Example 1. […] Thirty to 35 tumor histocultures were used for each time point.
Two studies were performed.
One schedule used 50% of the total C×T to induce apoptosis, whereas the other schedule used continuous treatment. […] The fraction of apoptotic cells and cell density were determined by counting the number of total and apoptotic tumor cells in 400× microscopic fields (3 fields per tumor).

FaDu xenograft tumors [5] = assay: Paclitaxel efflux from tumor histocultures; type: in vitro ADME, human
FaDu xenograft tumors [6] = assay: Paclitaxel uptake in tumor histocultures
Source text: FaDu cells were obtained from American Type Culture Collection (Rockville, Mass.). MCF7 cells were obtained from Dr. Kenneth Cowan at the National Cancer Institute. Cells were harvested from subconfluent cultures using trypsin and resuspended in fresh medium before plating. Cells with greater than 90% viability, as determined by trypan blue exclusion, were used for tumor implantation. Cells were centrifuged and resuspended in Matrigel (1:1 v/v). […] The tumor establishment was achieved by subcutaneously injecting 10^6 cells (0.1–0.2 ml) with a 18 gauge needle at left and right sides of the upper back. The tumor was removed when it reached a size of 0.5 to 1 g and used for experiments.
as §4, §5
For the FaDu xenograft tumor, specimens from individual animals were sufficiently large that each tumor was used for studying uptake and efflux at all four drug concentrations.

[7] = Group 1: 5 mg/kg/hr x 1 hr, then 0.83 x 6 hr at 24 hr, total 10 mg/kg
[8] = Group 2A: 5 mg/kg/hr x 1 hr at 0 hr, total 5 mg/kg, at 1 hr
[9] = Group 2B: 5 mg/kg/hr x 1 hr at 0 hr, total 5 mg/kg, at 24 hr
[10] = Group 3: 0.83 mg/kg/hr x 6 hr at 0 hr, total 5 mg/kg
[11] = Group 4: 5 mg/kg/hr x 1 hr at 0 hr + 0.83 x 6 hr at 1.2 hr, total 10 mg/kg
[12] = Group 5: 0.83 mg/kg/hr x 12 hr, total 10 mg/kg
[13] = initial Cmedium 120 nM for 24 hr, at 24 hr post-treatment
[14] = initial Cmedium 120 nM for 24 hr, at 72 hr post-treatment
[15] = initial Cmedium 1,200 nM for 24 hr, at 24 hr post-treatment
[16] = initial Cmedium 1,200 nM for 24 hr, at 72 hr post-treatment

In the case of `CC(=O)O[C@H]1C(=O)[C@@]2(C)[C@H]([C@H](OC(=O)c3ccccc3)[C@]3(O)C[C@H](OC(=O)[C@H](O)[C@@H](NC(=O)c4ccccc4)c4ccccc4)C(C)=C1C3(C)C)[C@]1(OC(C)=O)CO[C@@H]1C[C@@H]2O` [paclitaxel], the Apoptotic fraction (MAT-LyLu prostate tumor; [7]) is reported as 14.5 ± 2.5^b %, the Cell density (MAT-LyLu prostate tumor; [7]) is reported as 83 ± 4.69^b and the “Plasma conc. at end of Tx” value (MAT-LyLu prostate tumor; [7]) is reported as 1.42 ± 0.11 :g/ml. The “Tumor conc. at specified time” value (MAT-LyLu prostate tumor; Group 1: 5 mg/kg/hr x 1 hr, then 0.83 x 6 hr at 24 hr, total 10 mg/kg, at 30 hr) was 3.94 ± 0.35 :g/g, the “higher tumor concentration in Group 1 than sum of Group 2 at 24 hr and Group 3 at 6 hr” value (MAT-LyLu prostate tumor; Group 1 at 30 hr) was 50% and the “Plasma conc. at end of Tx” value (MAT-LyLu prostate tumor; Group 2A: 5 mg/kg/hr x 1 hr at 0 hr, total 5 mg/kg) was 6.01 ± 0.64 :g/ml. The Apoptotic fraction (MAT-LyLu prostate tumor; [8]) was 1.5 ± 0.9%, the Cell density (MAT-LyLu prostate tumor; [8]) was 120 ± 4.35 and the “Tumor conc. at specified time” value (MAT-LyLu prostate tumor; [8]) was 2.76 ± 0.57 :g/g. The Apoptotic fraction (MAT-LyLu prostate tumor; [9]) was 11.2 ± 2.3^c %, the Cell density (MAT-LyLu prostate tumor; [9]) was 85 ± 4.52 and the “Tumor conc. at specified time” value (MAT-LyLu prostate tumor; [9]) was <0.35 at :g/g. For the same molecule, the Apoptotic fraction (MAT-LyLu prostate tumor; [10]) was 3.5 ± 1.5%, the Cell density (MAT-LyLu prostate tumor; [10]) was 112 ± 6.08 and the “Plasma conc. at end of Tx” value (MAT-LyLu prostate tumor; [10]) was 1.31 ± 0.12 :g/ml. For the same molecule, the “Tumor conc. at specified time” value (MAT-LyLu prostate tumor; Group 3: 0.83 mg/kg/hr x 6 hr at 0 hr, total 5 mg/kg, at 6 hr) was 2.26 ± 0.13 :g/g, the Apoptotic fraction (MAT-LyLu prostate tumor; [11]) was 5.8 ± 2.2% and the Cell density (MAT-LyLu prostate tumor; [11]) was 108 ± 5.78. The “Plasma conc. at end of Tx” value (MAT-LyLu prostate tumor; [11]) was 2.98 ± 0.60 :g/ml, the “Tumor conc. at specified time” value (MAT-LyLu prostate tumor; Group 4: 5 mg/kg/hr x 1 hr at 0 hr + 0.83 x 6 hr at 1.2 hr, total 10 mg/kg, at 7.2 hr) was 3.24 ± 0.31 :g/g and the Apoptotic fraction (MAT-LyLu prostate tumor; [12]) was 6.5 ± 1.6%. For the same molecule, the Cell density (MAT-LyLu prostate tumor; [12]) was 115 ± 5.18, the “Plasma conc. at end of Tx” value (MAT-LyLu prostate tumor; [12]) was 1.50 ± 0.06 :g/ml and the “Tumor conc. at specified time” value (MAT-LyLu prostate tumor; Group 5: 0.83 mg/kg/hr x 12 hr, total 10 mg/kg, at 12 hr) was 2.95 ± 0.34 :g/g. For the same molecule, the “higher cell (density) in Group 5 compared to Group 1” value (MAT-LyLu prostate tumor; end of treatment) was 25%, the “higher cell density in Group 4 compared to Group 1” value (MAT-LyLu prostate tumor; end of treatment) was 30% and the “lower apoptosis in Group 4 compared to Group 1” value (MAT-LyLu prostate tumor; end of treatment) was 60%. For the same molecule, the “lower apoptosis in Group 5 compared to Group 1” value (MAT-LyLu prostate tumor; end of treatment) was 35%, the “lower drug concentration in Group 4 compared to Group 1” value (MAT-LyLu prostate tumor; end of treatment) was 18% and the “lower drug concentration in Group 5 at 12 hr than Group 1 at 30 hr” value (MAT-LyLu prostate tumor; rat, in vivo) was 25%. For the same molecule, the “difference between plasma concentrations at end of 6 and 12 hr infusions” value (MAT-LyLu prostate tumor; rats) was 13%, the half-life ([1]; plasma, rats, intravenous infusion, read-out: major half-life (converted)) was 1.1 h and the Kp ([1]; 5 mg/kg, Group 2A: 5 mg/kg/hr x 1 hr at 0 hr, total 5 mg/kg) was 0.46 ± 0.09. The Kp ([1]; 5 mg/kg, Group 3: 0.83 mg/kg/hr x 6 hr at 0 hr, total 5 mg/kg) was 1.73 ± 0.18, the Kp ([1]; 10 mg/kg, Group 1: 5 mg/kg/hr x 1 hr, then 0.83 x 6 hr at 24 hr, total 10 mg/kg) was 2.8 ± 0.28 and the Kp ([1]; 10 mg/kg, Group 4: 5 mg/kg/hr x 1 hr at 0 hr + 0.83 x 6 hr at 1.2 hr, total 10 mg/kg) was 1.2 ± 0.3. The Kp ([1]; 10 mg/kg, Group 5: 0.83 mg/kg/hr x 12 hr, total 10 mg/kg) was 1.98 ± 0.23, the “T1/2,efflux” value ([2]; initial Cmedium 120 nM for 24 hr) was 7.45 ± 3.02 h and the “% remaining in tumor” value [2, 13] was 54.8 ± 3.1%. For the same molecule, the Cmedium [2, 13] was 1.13 ± 0.17 nM, the Ctumor [2, 13] was 1.70 ± :M and the “% remaining in tumor” value [2, 14] was 43.3 ± 16.3%. For the same molecule, the Cmedium [2, 14] was 1.32 ± 0.14 nM, the Ctumor [2, 14] was 1.19 ± 0.50 :M and the “T1/2,efflux” value ([2]; initial Cmedium 1,200 nM for 24 hr) was 3.33 ± 2.62 h. For the same molecule, the “% remaining in tumor” value [2, 15] was 18.7 ± 6.2%, the Cmedium [2, 15] was 7.69 ± 2.55 nM and the Ctumor [2, 15] was 4.38 ± :M. For the same molecule, the “% remaining in tumor” value [2, 16] was 16.0 ± 5.3%, the Cmedium [2, 16] was 10.9 ± 1.1 nM and the Ctumor [2, 16] was 4.17 ± 2.77 :M. For the same molecule, the Mass balance ([3]; initial Cmedium 12 nM) was 91.2 ± 3.5%, the “Steady state Cmedium” value ([3]; initial Cmedium 12 nM) was 10.9 ± 1.0 nM and the Mass balance ([3]; initial Cmedium 120 nM) was 83.8 ± 7.6%. The “Steady state Cmedium” value ([3]; initial Cmedium 120 nM) was 83.0 ± 0.7 nM, the “Steady state Ctumor” value ([3]; initial Cmedium 120 nM) was 5.77 ± 1.52 :M and the Mass balance ([3]; initial Cmedium 1,200 nM) was 87.5 ± 6.5%. The “Steady state Cmedium” value ([3]; initial Cmedium 1,200 nM) was 925 ± 25 nM, the “Steady state Ctumor” value ([3]; initial Cmedium 1,200 nM) was 22.0 ± 6.2 :M and the Mass balance ([3]; initial Cmedium 12,000 nM) was 91.5 ± 3.5%. The “Steady state Cmedium” value ([3]; initial Cmedium 12,000 nM) was 9,870 ± 59 nM, the “Steady state Ctumor” value ([3]; initial Cmedium 12,000 nM) was 341 ± 125 :M and the “fraction of apoptotic cells” value ([4]; 12 nM, remained relatively constant) was ≥ 7%. For the same molecule, the “fraction of apoptotic cells” value ([4]; 120 nM, at 24 hours) was ~30%, the “fraction of apoptotic cells” value ([4]; 120 nM, at 72 hours) was ~50% and the “time at which even distribution in tumor was attained” value (FaDu tumor histocultures; 10 nM) was 72 h. The Paclitaxel in tumor (FaDu tumor histocultures; 50 nM x 24 hr, 24 hr after initiation of treatment) was 3.11 ± 0.31 :M, the Paclitaxel in tumor (FaDu tumor histocultures; 50 nM x 24 hr, 36 hr after initiation of treatment) was 2.01 ± 0.32 :M and the “time at which even distribution in tumor was attained” value (FaDu tumor histocultures; 50 nM) was 24 h. For the same molecule, the “time of even distribution throughout the tumor” value (FaDu tumor histocultures; 50 nM, without pretreatment) was ≤ 72 h, the Paclitaxel in tumor (FaDu tumor histocultures; 600 nM x 1 hr, 23 hr later 50 nM x 12 hr, 24 hr after initiation of treatment) was 2.68 ± 0.31 :M and the Paclitaxel in tumor (FaDu tumor histocultures; 600 nM x 1 hr, 23 hr later 50 nM x 12 hr, 36 hr after initiation of treatment) was 4.33 ± 0.29 :M. The paclitaxel penetration (FaDu tumor histocultures; control group, 50 nM continuously for 24 hr, during the next 12 hr) was “less than 20 cell layers”, the “higher drug accumulation in pretreatment group vs control group” value (FaDu tumor histocultures; end of drug treatment (36 hr vs 24 hr), equal CxT 1,200 nM·hr) was 40% and the “time of even drug distribution throughout histocultures” value (FaDu tumor histocultures; pretreatment group, 600 nM 1 hr, 23 hr drug-free, 50 nM 12 hr) was 36 h. For the same molecule, the Cmedium (FaDu xenograft tumors [5]; [13]) was 0.989 ± 0.228 nM, the Ctumor (FaDu xenograft tumors [5]; [13]) was 3.88 ± :M and the Cmedium (FaDu xenograft tumors [5]; [14]) was 1.42 ± 0.18 nM. The Ctumor (FaDu xenograft tumors [5]; [14]) was 3.84 ± 1.04 :M, the Cmedium (FaDu xenograft tumors [5]; [15]) was 12.2 ± 1.3 nM and the Ctumor (FaDu xenograft tumors [5]; [15]) was 23.2 ± :M. For the same molecule, the Cmedium (FaDu xenograft tumors [5]; [16]) was 18.9 ± 5.5 nM, the Ctumor (FaDu xenograft tumors [5]; [16]) was 17.7 ± 3.7 :M and the Mass balance (FaDu xenograft tumors [6]; initial Cmedium 12 nM) was 92.5 ± 5.1%. For the same molecule, the “Steady state Cmedium” value (FaDu xenograft tumors [6]; initial Cmedium 12 nM) was 9.09 ± 0.27 nM, the Mass balance (FaDu xenograft tumors [6]; initial Cmedium 120 nM) was 86.5 ± 2.8% and the “Steady state Cmedium” value (FaDu xenograft tumors [6]; initial Cmedium 120 nM) was 89.7 ± 13.3 nM. The Mass balance (FaDu xenograft tumors [6]; initial Cmedium 1,200 nM) was 89.4 ± 5.7%, the “Steady state Cmedium” value (FaDu xenograft tumors [6]; initial Cmedium 1,200 nM) was 887 ± 131 nM and the Mass balance (FaDu xenograft tumors [6]; initial Cmedium 12,000 nM) was 90.2 ± 5.4%. For the same molecule, the “Steady state Cmedium” value (FaDu xenograft tumors [6]; initial Cmedium 12,000 nM) was 8,910 ± 267 nM.
